Some test systems named below: HCT-116 colon; MOLT-4 leukemia; OVCAR-3 ovarian; SF-539 CNS; SK-MEL-5 melanoma; SK-MEL-28 melanoma; TK-10 renal; 786-0 renal; CAKI-1 renal; U251 CNS; RXF 393 renal; COLO 205 colon; SW-620 colon; UACC-62 melanoma; UACC-257 melanoma; MDA-N; A498 renal; KM12 colon; SR leukemia; OVCAR-5 ovarian.
Common to all, as to assay: DTP human tumour cell line panel, 48 h

For orientation: TGI means the concentration giving total growth inhibition.

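Compound exposure: 48 hours, 5 concentrations, 96-well plates. Definition used: TGI = concentration required for complete inhibition of growth.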

`CC(CCC#N)(CCC#N)C(=O)CC(O)(C(F)(F)F)C(F)(F)F`: the total growth inhibition concentration (TGI) in the experiment with HCT-116 colon was found to be 7.57 µM; in the experiment on MOLT-4 leukemia, 2.8 µM; in the experiment with OVCAR-3 ovarian, 7.73 µM; in the experiment on SF-539 CNS, 8.75 µM; with SK-MEL-5 melanoma it was 28.5 µM; with SK-MEL-28 melanoma, 27.2 µM. Further, the TGI was found to be 25.1 µM with TK-10 renal; 4.72 µM in the experiment with 786-0 renal; 8.32 µM with CAKI-1 renal; 33.2 µM in the experiment on U251 CNS; 5.03 µM in the experiment with RXF 393 renal; 4.9 µM with COLO 205 colon. Also, the total growth inhibition concentration (TGI) in the experiment on SW-620 colon is 6.9 µM; with UACC-62 melanoma it was 19.8 µM; in the experiment on UACC-257 melanoma it was 21.1 µM; with MDA-N, 4.88 µM; in the experiment with A498 renal it was 40 µM; with KM12 colon, 34.2 µM. Further, the results for the total growth inhibition concentration (TGI) in the experiment with SR leukemia and in the experiment on OVCAR-5 ovarian were 3.77 µM and 32.4 µM, respectively.

As to `O=C(c1cc(Cl)cc(Cl)c1)N1CCN(C(=O)c2cc(Cl)cc(Cl)c2)C1=S`, the TGI was 30 µM in the experiment with HCT-116 colon; 19.6 µM with MOLT-4 leukemia; 26.9 µM with OVCAR-3 ovarian; 22.7 µM in the experiment with SF-539 CNS; 33.7 µM in the experiment on SK-MEL-5 melanoma; greater than 54.5 µM in the experiment on SK-MEL-28 melanoma. For the same molecule, the TGI turned out to be 23.2 µM with TK-10 renal; 7.58 µM in the experiment with 786-0 renal; 25.2 µM in the experiment on CAKI-1 renal; 26.4 µM with U251 CNS; 26.4 µM in the experiment with RXF 393 renal; 35.2 µM in the experiment on COLO 205 colon. In addition, the concentration for total growth inhibition (TGI) with SW-620 colon is greater than 50.5 µM; in the experiment with UACC-62 melanoma, 23.5 µM; with UACC-257 melanoma, 28.8 µM; in the experiment with MDA-N, 34.5 µM; in the experiment with A498 renal, 31.6 µM; with KM12 colon, 24.8 µM. For the same molecule, the results for the TGI with SR leukemia and in the experiment with OVCAR-5 ovarian were 11.3 µM and 42.2 µM, respectively.

Consider `COc1cc(C2SCC(=O)N2c2ccc(Cl)c(Cl)c2)cc(OC)c1OC` (stereo not given), for which the TGI is greater than 100 µM in the experiment on HCT-116 colon; greater than 67 µM in the experiment on MOLT-4 leukemia; greater than 100 µM with OVCAR-3 ovarian; greater than 100 µM in the experiment with SF-539 CNS; greater than 100 µM with SK-MEL-5 melanoma; greater than 100 µM with SK-MEL-28 melanoma. Further, the TGI with TK-10 renal was greater than 100 µM; with 786-0 renal, greater than 100 µM; with CAKI-1 renal it was greater than 100 µM; in the experiment with U251 CNS it was greater than 100 µM; with RXF 393 renal it was 43.5 µM; in the experiment with COLO 205 colon it was greater than 100 µM. In addition, the TGI in the experiment on SW-620 colon is greater than 100 µM; in the experiment on UACC-62 melanoma, greater than 21.9 µM; with UACC-257 melanoma, greater than 100 µM; in the experiment on MDA-N, 45.9 µM; in the experiment on A498 renal, greater than 100 µM; in the experiment with KM12 colon it was 51 µM. Moreover, the total growth inhibition concentration (TGI) came out at 83.8 µM with SR leukemia and 98.3 µM with OVCAR-5 ovarian.

Take `COc1ccc(C(OCC2OC(n3cc(C)c(=O)[nH]c3=O)CC2n2cc(Cn3cc(Br)c(=O)[nH]c3=O)nn2)(c2ccccc2)c2ccccc2)cc1` (stereo not given): the TGI with HCT-116 colon, in the experiment on MOLT-4 leukemia, in the experiment on OVCAR-3 ovarian, with SF-539 CNS, in the experiment with SK-MEL-5 melanoma and in the experiment on SK-MEL-28 melanoma was greater than 100 µM throughout. The total growth inhibition concentration (TGI) with TK-10 renal, with 786-0 renal, with CAKI-1 renal, with U251 CNS, in the experiment on RXF 393 renal and in the experiment on COLO 205 colon was greater than 100 µM throughout. The TGI in the experiment with SW-620 colon, with UACC-62 melanoma, in the experiment with UACC-257 melanoma, in the experiment with MDA-N, with A498 renal and with KM12 colon was greater than 100 µM in each case. In addition, the TGI in the experiment on SR leukemia and in the experiment on OVCAR-5 ovarian was greater than 100 µM in each case.

In the case of `O=[N+]([O-])c1ccc(S(=O)(=O)N=Ic2ccccc2)cc1`, the concentration for total growth inhibition (TGI) in the experiment with HCT-116 colon, in the experiment with MOLT-4 leukemia, in the experiment with OVCAR-3 ovarian, with SF-539 CNS, in the experiment with SK-MEL-5 melanoma and with SK-MEL-28 melanoma was greater than 100 µM throughout. In addition, the TGI with TK-10 renal, in the experiment on 786-0 renal, in the experiment on CAKI-1 renal, with U251 CNS, in the experiment with RXF 393 renal and in the experiment with COLO 205 colon was greater than 100 µM each time. Further, the TGI in the experiment on SW-620 colon, with UACC-62 melanoma, in the experiment on UACC-257 melanoma, with MDA-N, with A498 renal and with KM12 colon was greater than 100 µM each time. Moreover, the TGI in the experiment with SR leukemia and in the experiment on OVCAR-5 ovarian was greater than 100 µM each time.

The record behind these values is PubChem BioAssay (NCI).
